In test [1] the target is T1, Muscarinic acetylcholine receptor M1 (Homo sapiens, UniProt P11229).
T1 sequence (P11229 whole entry): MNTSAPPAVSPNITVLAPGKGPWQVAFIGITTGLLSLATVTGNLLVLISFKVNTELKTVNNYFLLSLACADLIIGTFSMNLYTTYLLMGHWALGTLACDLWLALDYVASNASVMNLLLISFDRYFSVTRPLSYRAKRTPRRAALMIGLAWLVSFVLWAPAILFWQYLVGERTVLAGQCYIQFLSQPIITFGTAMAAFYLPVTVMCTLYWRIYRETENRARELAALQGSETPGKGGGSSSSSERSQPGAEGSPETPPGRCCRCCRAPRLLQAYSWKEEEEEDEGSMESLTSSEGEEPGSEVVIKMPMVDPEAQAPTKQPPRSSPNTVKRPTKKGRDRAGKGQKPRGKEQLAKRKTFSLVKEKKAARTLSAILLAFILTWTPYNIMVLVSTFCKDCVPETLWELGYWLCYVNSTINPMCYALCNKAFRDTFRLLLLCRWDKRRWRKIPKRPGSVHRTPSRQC
The test can be described thus: Inhibition of [3H]QNB binding to human muscarinic receptor M1.

Test [2] addresses T2, Muscarinic acetylcholine receptor M1 (Homo sapiens) (UniProt P11229).
T2 sequence (whole entry): T1 sequence (P11229 whole entry)
Description: Apparent dissociation constant for human muscarinic receptor M1 from FRET binding assay

Test [3] has as its target T1, Muscarinic acetylcholine receptor M1. The experiment in a line: Apparent dissociation constant for human muscarinic receptor M1 from FRET based binding assay.
Test [4] deals with T2, Muscarinic acetylcholine receptor M1 (Homo sapiens). The note with it: 100 nM.
Description: Dissociation rate constant for human muscarinic receptor at 100 nM with 500 uM brucine
Test [5] has the same target. Conditions: 100 nM. The source holds these as a separate data set.
Description: Dissociation rate constant for human muscarinic receptor at 100 nM with 100 uM brucine
Test [6] has the same target. The note with it: 300 nM.
Description: Dissociation rate constant for human muscarinic receptor at 300 nM with 100 uM brucine
Test [7] shares this target. Conditions: 300 nM. The source holds these as a separate data set.
Description: Dissociation rate constant for human muscarinic receptor at 300 nM with 500 uM brucine
For test [8] the target is unchanged. The test can be described thus: Dissociation rate constant for human muscarinic receptor at 200 nM with 500 uM brucine.
For test [9] the target is unchanged. The test can be described thus: Dissociation rate constant for human muscarinic receptor at 200 nM with 100 uM brucine.
Test [10] has the same target. The test can be described thus: Dissociation rate constant for human muscarinic receptor at 500 nM with 500 uM brucine.
Test [11] has the same target. The experiment in a line: Dissociation rate constant for human muscarinic receptor at 500 nM with 100 uM brucine.

In [1], `O=C(CCC1=[N+]2C(=Cc3ccc(-c4cccs4)n3[B-]2(F)F)C=C1)NCCCCCCN1CCN(CC(=O)N2c3ccccc3C(=O)Nc3cccnc32)CC1` registered a Ki of 8.8 nM. In test [2], this molecule registered an E of 0.63. The Kd in test [3] amounted to 12.9 nM. The Dissociation rate constant in [4] was 7.2e-05 1/S; in test [5] it was 0.0002 1/S.

Molecule `O=C(CCC1=[N+]2C(=Cc3ccc(-c4cccs4)n3[B-]2(F)F)C=C1)NCCN1CCN(CC(=O)N2c3ccccc3C(=O)Nc3cccnc32)CC1` came in with a Ki in test [1] of over 1000 nM.

Turning to `CNC(=O)CCC1=[N+]2C(=Cc3ccc(-c4cccs4)n3[B-]2(F)F)C=C1`, the Ki in test [1] is over 1000 nM.

Consider `CCN1/C(=C/C=C/C2N(CCCCCC(=O)NCCOCCOCCN3CCN(CC(=O)N4c5ccccc5C(=O)Nc5cccnc54)CC3)c3ccc(S(=O)(=O)O)cc3C2(C)C)C(C)(C)c2cc(S(=O)(=O)O)ccc21` (configuration not stated), for which, in [1], the Ki came to 135 nM. In test [2], this molecule came in with an E of 0.6. The Kd in test [3] stood at 35.7 nM. The Dissociation rate constant in test [6] is 0.00039 1/S; in test [7] it was 0.000353 1/S.

With `O=C(CCC1=[N+]2C(=Cc3ccc(-c4cccs4)n3[B-]2(F)F)C=C1)NCCOCCOCCN1CCN(CC(=O)N2c3ccccc3C(=O)Nc3cccnc32)CC1`, the inhibition constant Ki in test [1] turned out to be 45.4 nM. Also, the Dissociation rate constant in [8] was 0.00013 1/S; in test [9], 0.00025 1/S. Also, in [2], the E turned out to be 0.6. For the same molecule, in test [3], the Kd came to 21.9 nM.

In test [1], `CCN(CC)c1ccc2c(-c3ccc(S(=O)(=O)NCCCCCC(=O)NCCOCCOCCN4CCN(CC(=O)N5c6ccccc6C(=O)Nc6cccnc65)CC4)cc3S(=O)(=O)[O-])c3ccc(=[N+](CC)CC)cc-3oc2c1` returned an inhibitory constant (Ki) of 53.5 nM. The same molecule returned an E in [2] of 0.68. For the same molecule, in test [3], the Kd came to 18.7 nM. Moreover, the Dissociation rate constant in [10] was 0.00051 1/S; in test [11] it was 0.00062 1/S.

In [1], `O=C(CCC1=[N+]2C(=Cc3ccc(-c4cccs4)n3[B-]2(F)F)C=C1)NCCOCCOCCOCCOCCOCCOCCN1CCN(CC(=O)N2c3ccccc3C(=O)Nc3cccnc32)CC1` had a Ki of 8.9 nM. In addition, the E in test [2] is 0.53. Besides, the Kd in test [3] stood at 4.1 nM. In addition, the Dissociation rate constant in test [4] is 0.00025 1/S; in test [5] it was 0.00023 1/S.

In test [1], `O=C(CCCCCNC(=O)CCC1=[N+]2C(=Cc3ccc(-c4cccs4)n3[B-]2(F)F)C=C1)NCCCCCC(=O)NCCCCN1CCN(CC(=O)N2c3ccccc3C(=O)Nc3cccnc32)CC1` gave a Ki of 55.1 nM. Moreover, the figures for the Dissociation rate constant in test [8] and in [9] were 0.00146 1/S and 0.00144 1/S, respectively. For the same molecule, the E in test [2] turned out to be 0.51. In test [3], the Kd was 12.7 nM.

What is called Ki is the equilibrium dissociation constant of an inhibitor or competing ligand from its target. A low value points to higher affinity.

The values are drawn from ChEMBL document CHEMBL1138682, “Fluorescent pirenzepine derivatives as potential bitopic ligands of the human M1 muscarinic receptor” (J Med Chem, 2004).
